From ChEMBL document CHEMBL3639137, “3H-imidazo [4, 5-C] pyridine-6-carboxamides as anti-inflammatory agents” (2014) come the findings set out here.

This experiment concerns the target T1, Prostaglandin E synthase (Homo sapiens, UniProt O14684).
T1 sequence (O14684 whole entry): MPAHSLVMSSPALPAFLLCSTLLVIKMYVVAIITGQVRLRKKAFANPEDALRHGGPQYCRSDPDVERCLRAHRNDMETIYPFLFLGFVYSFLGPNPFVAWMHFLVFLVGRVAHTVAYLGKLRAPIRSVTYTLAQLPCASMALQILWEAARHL
The experiment can be described thus: Enzyme Assay: The aim of this assay is to determine the affinity of a test compound for the mPGES-1 enzyme. 47 ul of recombinant human mPGES-1 (0.5 ug protein/well) containing microsomal suspension in a buffer containing GSH, (2.5 mmol/L L-Glutathione reduced, dissolved in 0.1 mol/L Phosphat Buffer pH 7.4) is dispensed in a 384-well plate and thereafter 1 ul of the test compound(s) is/are added and incubated for 25 minutes at room temperature. The enzyme reaction is started by the addition of 2 ul PGH2 (final conc. 2 uM) dissolved in water-free Diglyme. After 60 seconds the reaction is terminated by addition of a stop solution containing FeCl2 (10 uL 0.074 mol/l FeCl2). The samples are diluted between 1:25 in PBS (Phosphate Buffered Saline). 10 ul of the diluted samples are transferred to 384-well low volume plate.

The IC50 is the concentration that inhibits the measured activity by half.

For the compound `Cn1c(Nc2c(Cl)ccc(CNC(=O)C(C)(C)C)c2Cl)nc2cc(C(=O)Nc3ccc(Br)cc3)c(F)cc21`, the IC50 worked out at 2 nM.

Consider `Cn1c(Nc2c(Cl)ccc(CNC(=O)C(C)(C)C)c2Cl)nc2cc(C(=O)Nc3cccc(C#N)c3)c(OCC(F)F)cc21`, for which the concentration for half-maximal inhibition (IC50) was 3 nM. For `CC(C)(C)C(=O)NCc1ccc(Cl)c(Nc2nc3cc(OC(F)F)c(C(=O)N[C@H]4CC[C@H](C(F)(F)F)CC4)cc3[nH]2)c1Cl` the value was 2 nM; for `CC(C)(C)C(=O)NCc1ccc(Cl)c(Nc2nc3c(F)c(OCC(F)(F)F)c(C(=O)N[C@H]4CC[C@H](C(F)(F)F)CC4)cc3[nH]2)c1Cl`, 2 nM.
